The record followed here is ChEMBL document CHEMBL5723035, “Affinity Biochemical Literature for EUbOPEN Chemogenomic Library” (2024).

One assay concerns the target Caspase-8 (Homo sapiens, UniProt Q14790). The experiment in a line: Affinity Biochemical interaction: (enzymatic assay (fluorogenic substrate cleavage)) EUB0002177aAD CASP8. Further details: mode of action Inhibitor, recommended concentration 1 uM. In kind it is functional.
Assay [1] concerns the target T1, WD repeat-containing protein 5 (Homo sapiens, UniProt P61964). The assay can be described thus: Affinity Biochemical interaction: (TR-FRET) EUB0002166aAD WDR5. In kind it is functional. Further details: mode of action Inhibitor, recommended concentration 1 uM.
The target in assay [2] is T1, WD repeat-containing protein 5. The assay can be described thus: Affinity Biochemical interaction: (Fluorescence polarisation anisotropy) EUB0002166aAD WDR5. The class given is functional. The arrangement: mode of action Inhibitor, recommended concentration 1 uM.
Assay [3] deals with T2, Caspase-3 (Homo sapiens, UniProt P42574).
T2 sequence (P42574 whole entry): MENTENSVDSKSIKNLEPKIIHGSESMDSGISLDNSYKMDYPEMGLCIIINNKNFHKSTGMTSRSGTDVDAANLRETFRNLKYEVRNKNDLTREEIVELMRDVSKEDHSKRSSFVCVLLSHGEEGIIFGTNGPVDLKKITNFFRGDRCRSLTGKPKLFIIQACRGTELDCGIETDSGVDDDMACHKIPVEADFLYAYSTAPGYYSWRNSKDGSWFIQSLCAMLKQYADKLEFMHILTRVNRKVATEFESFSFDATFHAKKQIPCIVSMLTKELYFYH
The experiment in a line: Affinity Biochemical interaction: (enzymatic assay (fluorogenic substrate cleavage)) EUB0002175aAD CASP3. Further details: mode of action Inhibitor, recommended concentration 1 uM. The class given is functional.

Assay [4] in a line: Affinity Biochemical interaction: (inhibition of enzyme activity, competitive binding assay (fluorescent substrate cleavage)) EUB0002137aAD CAPN2.
Assay [5] concerns the target Monocarboxylate transporter 1 (Homo sapiens, UniProt P53985). The assay can be described thus: Affinity Biochemical interaction: (Displacement of radiolabelled [3H]-BAY-8002) EUB0001677b SLC16A1. The arrangement: mode of action Inhibitor, recommended concentration 1 uM.
In assay [6] the target is Protein arginine N-methyltransferase 7 (Homo sapiens, UniProt Q9NVM4). The assay can be described thus: Affinity Biochemical interaction: (SPR) EUB0002223a PRMT7. Further details: mode of action Inhibitor, recommended concentration 1 uM.
In assay [7] the target is Protein arginine N-methyltransferase 5 (Homo sapiens, UniProt O14744). The assay can be described thus: Affinity Biochemical interaction: (SPR) EUB0002223a PRMT5. Further details: mode of action Inhibitor, recommended concentration 1 uM.
Assay [8] has as its target Diacylglycerol lipase-beta (Homo sapiens) (UniProt Q8NCG7). The experiment in a line: Affinity Biochemical interaction: (Gel-based competitive ABPP) EUB0002547a DAGLB. In kind it is functional. Further details: recommended concentration 1 uM. The settings on record: Affinity Biochemical Source Knowledge https://pubs.acs.org/doi/epdf/10.1021/jm400898x.
For another assay, the target named is Caspase-5 (Homo sapiens, UniProt P51878). The experiment in a line: Affinity Biochemical interaction: (enzymatic assay (fluorogenic substrate cleavage)) EUB0002202a CASP5. The arrangement: mode of action Inhibitor, recommended concentration 1 uM. The class given is functional.
In assay [9] the target is T3, Chromobox protein homolog 7 (Homo sapiens, UniProt O95931).
T3 sequence (O95931 whole entry): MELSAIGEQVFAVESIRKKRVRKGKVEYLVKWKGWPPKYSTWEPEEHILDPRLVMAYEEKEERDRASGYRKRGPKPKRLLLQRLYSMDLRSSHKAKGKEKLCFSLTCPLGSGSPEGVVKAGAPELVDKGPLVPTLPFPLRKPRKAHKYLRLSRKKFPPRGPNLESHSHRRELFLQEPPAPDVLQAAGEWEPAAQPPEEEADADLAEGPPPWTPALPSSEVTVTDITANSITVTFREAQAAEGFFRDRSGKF
The experiment in a line: Affinity Biochemical interaction: (ITC) EUB0001090a CBX7. Further details: mode of action Inhibitor, recommended concentration 1 uM.

Assay [10] concerns the target T3, Chromobox protein homolog 7. The experiment in a line: Affinity Biochemical interaction: (AlphaScreen) EUB0001090a CBX7. In kind it is functional. Further details: mode of action Inhibitor, recommended concentration 1 uM. Background: Alpha assays give light when donor and acceptor beads are brought close together.
For assay [11] the target is unchanged. The assay can be described thus: Affinity Biochemical interaction: (SPR) EUB0001090a CBX7. The arrangement: mode of action Inhibitor, recommended concentration 1 uM.
Assay [12] addresses T2, Caspase-3. The experiment in a line: (§1) Affinity Biochemical interaction: (enzymatic assay (fluorogenic substrate cleavage)) EUB0002178aAD CASP3. The class given is functional. The arrangement: mode of action Inhibitor, recommended concentration 1 uM.
For assay [13], the target named is T2, Caspase-3. Described as §1. Further details: mode of action Inhibitor, recommended concentration 1 uM. In kind it is functional. This is another data set of the same source.
For a further assay, the target named is Procathepsin L (Homo sapiens, UniProt P07711). The experiment in a line: Affinity Biochemical interaction: (Colorimetric assay, lysis of casein substrate and analysis of protease inhibition by reading wavelength at 595 nm) EUB0002195a CTSL. In kind it is functional. Further details: mode of action Inhibitor, recommended concentration 1 uM.
A further assay has as its target Cathepsin B (Homo sapiens, UniProt P07858). The assay can be described thus: Affinity Biochemical interaction: (Colorimetric assay, lysis of casein substrate and analysis of protease inhibition by reading wavelength at 595 nm) EUB0002195a CTSB. The class given is functional. The arrangement: mode of action Inhibitor, recommended concentration 1 uM.
Assay [14] concerns the target Calpain-2 catalytic subunit (Homo sapiens, UniProt P17655). The assay can be described thus: Affinity Biochemical interaction: (Colorimetric assay, lysis of casein substrate and analysis of protease inhibition by reading wavelength at 595 nm) EUB0002195a CAPN2. In kind it is functional. The arrangement: mode of action Inhibitor, recommended concentration 1 uM.

Non-standard residues stand in square brackets, D forms with d. Residues, ends and D or L forms follow the SMILES beside them. *: point of attachment. Lys(Me,2-norbornyl) = CN(CCCC[C@H](N)C(=O)O)C1CC2CCC1C2; Benzoyl(4-tBu) = CC(C)(C)c1ccc(C(=O)*)cc1; Cbz = O=C(OCc1ccccc1)*; CH2F = FC* A value given as a limit tells only on which side of the number the result lay.

Sequence of Monocarboxylate transporter 1 (P53985 whole entry): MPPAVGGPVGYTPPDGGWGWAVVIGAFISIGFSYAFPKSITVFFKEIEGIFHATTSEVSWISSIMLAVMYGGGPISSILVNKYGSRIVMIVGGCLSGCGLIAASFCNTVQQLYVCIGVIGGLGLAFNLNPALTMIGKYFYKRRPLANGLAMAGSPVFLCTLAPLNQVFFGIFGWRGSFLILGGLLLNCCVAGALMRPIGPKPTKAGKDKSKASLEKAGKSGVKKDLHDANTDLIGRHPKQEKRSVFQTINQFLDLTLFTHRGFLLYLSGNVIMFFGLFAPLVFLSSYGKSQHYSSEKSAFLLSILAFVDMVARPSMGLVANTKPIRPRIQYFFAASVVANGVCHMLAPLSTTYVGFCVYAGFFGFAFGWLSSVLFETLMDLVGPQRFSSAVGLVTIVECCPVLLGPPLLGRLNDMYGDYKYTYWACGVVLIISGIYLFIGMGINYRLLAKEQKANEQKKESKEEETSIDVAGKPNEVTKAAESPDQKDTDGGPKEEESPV
Sequence of Procathepsin L (P07711 whole entry): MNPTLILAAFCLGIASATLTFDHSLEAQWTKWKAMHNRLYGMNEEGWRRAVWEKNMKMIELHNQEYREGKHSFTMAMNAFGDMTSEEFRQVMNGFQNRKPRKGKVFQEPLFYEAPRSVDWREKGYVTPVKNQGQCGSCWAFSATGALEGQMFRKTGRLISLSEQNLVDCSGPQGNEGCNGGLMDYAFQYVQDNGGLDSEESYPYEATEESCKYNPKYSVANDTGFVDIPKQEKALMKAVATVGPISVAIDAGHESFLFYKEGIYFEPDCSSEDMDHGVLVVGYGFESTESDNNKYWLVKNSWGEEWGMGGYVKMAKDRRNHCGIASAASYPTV
Sequence of Protein arginine N-methyltransferase 7 (Q9NVM4 whole entry): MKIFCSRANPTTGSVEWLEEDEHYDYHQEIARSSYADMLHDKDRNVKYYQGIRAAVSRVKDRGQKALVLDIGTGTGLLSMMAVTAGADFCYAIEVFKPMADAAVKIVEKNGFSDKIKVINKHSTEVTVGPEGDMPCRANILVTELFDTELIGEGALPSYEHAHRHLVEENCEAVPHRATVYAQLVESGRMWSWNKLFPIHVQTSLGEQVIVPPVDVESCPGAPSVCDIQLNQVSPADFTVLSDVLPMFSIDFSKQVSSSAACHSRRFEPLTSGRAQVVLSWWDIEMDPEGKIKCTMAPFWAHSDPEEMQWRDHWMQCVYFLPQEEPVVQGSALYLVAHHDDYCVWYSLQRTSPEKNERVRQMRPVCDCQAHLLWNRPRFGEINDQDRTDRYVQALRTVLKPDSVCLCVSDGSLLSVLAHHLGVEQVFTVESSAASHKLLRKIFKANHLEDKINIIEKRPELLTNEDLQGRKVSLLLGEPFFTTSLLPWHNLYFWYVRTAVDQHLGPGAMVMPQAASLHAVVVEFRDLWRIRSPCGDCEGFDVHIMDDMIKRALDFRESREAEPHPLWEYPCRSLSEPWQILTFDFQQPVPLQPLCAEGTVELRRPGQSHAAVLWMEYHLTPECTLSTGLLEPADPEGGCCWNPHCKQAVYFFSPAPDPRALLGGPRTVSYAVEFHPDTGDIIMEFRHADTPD
Sequence of Caspase-8 (Q14790 217-374 limits assumed): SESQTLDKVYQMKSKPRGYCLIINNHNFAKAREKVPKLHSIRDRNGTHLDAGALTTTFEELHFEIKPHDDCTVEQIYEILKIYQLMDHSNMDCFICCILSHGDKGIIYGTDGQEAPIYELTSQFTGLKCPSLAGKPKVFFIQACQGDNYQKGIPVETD
Sequence of Caspase-8 (Q14790 385-479 limits assumed): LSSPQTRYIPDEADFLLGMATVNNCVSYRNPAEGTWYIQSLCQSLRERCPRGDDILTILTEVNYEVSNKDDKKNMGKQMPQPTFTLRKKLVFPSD
Sequence of Calpain-2 catalytic subunit (P17655 whole entry): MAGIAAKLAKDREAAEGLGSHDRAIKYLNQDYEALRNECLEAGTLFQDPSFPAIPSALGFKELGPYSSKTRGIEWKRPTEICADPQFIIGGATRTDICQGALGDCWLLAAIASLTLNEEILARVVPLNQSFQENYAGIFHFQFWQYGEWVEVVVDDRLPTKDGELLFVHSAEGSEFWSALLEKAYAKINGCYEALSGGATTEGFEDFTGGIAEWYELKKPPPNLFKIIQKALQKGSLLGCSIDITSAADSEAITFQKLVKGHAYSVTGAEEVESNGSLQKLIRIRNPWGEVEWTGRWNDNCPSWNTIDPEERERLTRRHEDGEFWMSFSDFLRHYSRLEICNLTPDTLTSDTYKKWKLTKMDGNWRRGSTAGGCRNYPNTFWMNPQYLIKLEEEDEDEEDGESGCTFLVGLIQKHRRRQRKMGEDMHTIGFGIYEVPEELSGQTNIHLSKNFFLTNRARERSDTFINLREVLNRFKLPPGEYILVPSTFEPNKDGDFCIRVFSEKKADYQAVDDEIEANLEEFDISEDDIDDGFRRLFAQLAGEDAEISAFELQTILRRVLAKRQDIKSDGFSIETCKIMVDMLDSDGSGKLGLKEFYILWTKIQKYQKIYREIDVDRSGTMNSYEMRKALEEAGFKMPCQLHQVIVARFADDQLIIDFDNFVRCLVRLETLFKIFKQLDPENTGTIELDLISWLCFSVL
Sequence of Caspase-5 (P51878 137-327 limits assumed): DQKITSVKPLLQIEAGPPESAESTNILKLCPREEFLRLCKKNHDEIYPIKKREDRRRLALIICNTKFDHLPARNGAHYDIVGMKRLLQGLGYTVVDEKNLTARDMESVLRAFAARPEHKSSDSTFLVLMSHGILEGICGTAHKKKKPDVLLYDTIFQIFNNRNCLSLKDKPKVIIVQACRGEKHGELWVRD
Sequence of Caspase-5 (P51878 347-434 limits assumed): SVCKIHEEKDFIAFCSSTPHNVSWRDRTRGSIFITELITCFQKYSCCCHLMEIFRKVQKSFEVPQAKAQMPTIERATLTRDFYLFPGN
Sequence of Diacylglycerol lipase-beta (Homo sapiens) (Q8NCG7 whole entry): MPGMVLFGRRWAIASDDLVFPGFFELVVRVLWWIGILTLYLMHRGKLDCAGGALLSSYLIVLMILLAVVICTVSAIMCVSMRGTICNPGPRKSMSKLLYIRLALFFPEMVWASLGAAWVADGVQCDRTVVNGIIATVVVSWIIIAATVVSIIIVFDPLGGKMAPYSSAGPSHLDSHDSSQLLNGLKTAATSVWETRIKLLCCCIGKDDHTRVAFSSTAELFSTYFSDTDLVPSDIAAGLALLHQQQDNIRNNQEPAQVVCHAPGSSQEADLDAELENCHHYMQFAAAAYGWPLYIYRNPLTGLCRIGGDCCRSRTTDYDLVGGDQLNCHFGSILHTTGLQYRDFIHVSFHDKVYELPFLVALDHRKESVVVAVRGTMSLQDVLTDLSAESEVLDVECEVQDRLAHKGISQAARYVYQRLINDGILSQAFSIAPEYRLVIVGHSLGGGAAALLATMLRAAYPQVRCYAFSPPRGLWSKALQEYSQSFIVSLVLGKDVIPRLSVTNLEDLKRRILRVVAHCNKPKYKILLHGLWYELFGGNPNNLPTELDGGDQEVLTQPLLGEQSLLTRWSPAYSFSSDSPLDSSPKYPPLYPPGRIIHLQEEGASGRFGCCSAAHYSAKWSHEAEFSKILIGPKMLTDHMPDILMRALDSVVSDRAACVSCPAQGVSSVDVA
Sequence of Protein arginine N-methyltransferase 5 (O14744 whole entry): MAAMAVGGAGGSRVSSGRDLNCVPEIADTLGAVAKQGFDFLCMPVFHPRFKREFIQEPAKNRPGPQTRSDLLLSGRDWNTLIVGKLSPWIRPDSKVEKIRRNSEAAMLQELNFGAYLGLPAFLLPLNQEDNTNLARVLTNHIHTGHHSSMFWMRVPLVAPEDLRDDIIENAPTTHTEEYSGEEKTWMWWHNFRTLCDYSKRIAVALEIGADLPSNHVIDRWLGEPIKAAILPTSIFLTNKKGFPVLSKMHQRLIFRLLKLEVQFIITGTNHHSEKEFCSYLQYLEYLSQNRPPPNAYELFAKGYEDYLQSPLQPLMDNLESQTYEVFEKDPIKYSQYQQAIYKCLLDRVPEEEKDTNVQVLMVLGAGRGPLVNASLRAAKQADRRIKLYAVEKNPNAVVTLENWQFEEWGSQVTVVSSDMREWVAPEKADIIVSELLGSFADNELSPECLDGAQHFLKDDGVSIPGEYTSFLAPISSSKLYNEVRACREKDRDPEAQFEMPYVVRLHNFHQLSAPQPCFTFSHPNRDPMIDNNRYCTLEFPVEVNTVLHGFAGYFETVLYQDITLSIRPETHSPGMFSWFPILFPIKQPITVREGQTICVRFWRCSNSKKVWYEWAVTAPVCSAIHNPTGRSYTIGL

With `CC[C@H](C)[C@H](NC(C)=O)C(=O)N[C@@H](CCC(=O)O)C(=O)N[C@H](C(=O)N[C@H](C=O)CC(=O)O)[C@@H](C)O` (Ac-IETD-aldehyde), it took 5 nM to reach half-maximal inhibition at Caspase-8 (IC50). This counts as single-digit nanomolar. As for `Cc1nc(F)ccc1-c1cc(Cn2ccn(C)c2=N)cc(C(=O)NCc2ccc(Cl)c(Cl)c2)c1`, the inhibition constant (Ki) (usually a measure of affinity in units of concentration, obtained from inhibition or displacement) was 0.106 nM in [1] and less than 0.001 nM in assay [2]. On Caspase-3 [3], `CSCC[C@H](NC(=O)[C@H](CC(=O)O)NC(C)=O)C(=O)N[C@@H](CCC(N)=O)C(=O)N[C@H](C=O)CC(=O)O` (Ac-DMQD-aldehyde) returned a Ki of 13.3 nM. This counts as double-digit nanomolar. `CCC(NC(=O)C(CC(C)C)NC(=O)OCc1ccccc1)C(=O)C(=O)NCCCN1CCOCC1` (centres undefined): the inhibition constant (Ki) in assay [4] was determined as 41 nM. As to `O=C(Nc1ccccc1C(=O)O)c1cc(S(=O)(=O)c2ccccc2)ccc1Cl`, in assay [5], the IC50 (usually the concentration needed to halve the response being measured) is 11 nM and the inhibition constant Ki stood at 5.02 nM. Take `CCNC(=O)NCCSC[C@H]1O[C@@H](n2cnc3c(N)ncnc32)[C@H](O)[C@@H]1O`: the IC50 in [6] stood at 37000 nM; in [7], 25000 nM. In the case of `CC(C)(C)OC(=O)NCCCCCN(CCc1ccccc1)C(=O)n1cc(-c2ccc(OC(F)(F)F)cc2)nn1`, in assay [8], the inhibition (usually the relative decrease from the control value, in per cent) came out at 73%. On to `COC(=O)CC[C@H](NC(=O)[C@H](Cc1c[nH]c2ccccc12)NC(=O)OCc1ccccc1)C(=O)N[C@@H](Cc1cnc[nH]1)C(=O)N[C@@H](CC(=O)OC)C(=O)CF` (Cbz-WE(OMe)HD(OMe)-CH2F), for which it took 340 nM to reach half-maximal inhibition at Caspase-5 (IC50). For the molecule `COC(=O)[C@H](CO)NC(=O)[C@H](CCCCN(C)C1CC2CCC1C2)NC(=O)[C@H](CC(C)C)NC(=O)[C@H](C)NC(=O)[C@H](Cc1ccccc1)NC(=O)c1ccc(C(C)(C)C)cc1` (some centres undefined) ({Benzoyl(4-tBu)}-FAL[Lys(Me,2-norbornyl)]S-OMe), the Kd (usually a measure of binding affinity in units of concentration) was 59 nM in assay [9] and 53.8 nM in [11]. Besides, the midpoint of inhibition in assay [10], the IC50, lay at 20 nM.

`CC[C@H](C)[C@H](NC(=O)[C@H](CCC(=O)O)NC(=O)[C@@H](NC(C)=O)C(C)C)C(=O)N[C@H](C=O)CC(=O)O` (Ac-VEID-aldehyde): the figures for the concentration for half-maximal inhibition (IC50) at Caspase-3 [12] and on Caspase-3 [13] were 480 nM and 13.6 nM, respectively. As for `CC(C)C[C@@H](C=O)NC(=O)[C@@H](NS(=O)(=O)c1ccc(F)cc1)C(C)C`, the concentration for half-maximal inhibition (IC50) turned out to be 1.6 nM against Procathepsin L, 15 nM against Cathepsin B and 78 nM in [14].
